{"source": "paper PMC5104425", "about": "“A Novel Selective Inhibitor of Delta-5 Desaturase Lowers Insulin Resistance and Reduces Body Weight in Diet-Induced Obese C57BL/6J Mice” (PLoS ONE, 2016)", "key": {"rat D5D": {"molecular_target": "T1, rat D5D (Rattus norvegicus, UniProt Q920R3)", "T1 construct": "using hepatic microsomes prepared from SD rats; from tissue; host or cells: liver microsomes of SD rats (CLEA, Japan)", "T1 sequence (Q920R3 whole entry)": "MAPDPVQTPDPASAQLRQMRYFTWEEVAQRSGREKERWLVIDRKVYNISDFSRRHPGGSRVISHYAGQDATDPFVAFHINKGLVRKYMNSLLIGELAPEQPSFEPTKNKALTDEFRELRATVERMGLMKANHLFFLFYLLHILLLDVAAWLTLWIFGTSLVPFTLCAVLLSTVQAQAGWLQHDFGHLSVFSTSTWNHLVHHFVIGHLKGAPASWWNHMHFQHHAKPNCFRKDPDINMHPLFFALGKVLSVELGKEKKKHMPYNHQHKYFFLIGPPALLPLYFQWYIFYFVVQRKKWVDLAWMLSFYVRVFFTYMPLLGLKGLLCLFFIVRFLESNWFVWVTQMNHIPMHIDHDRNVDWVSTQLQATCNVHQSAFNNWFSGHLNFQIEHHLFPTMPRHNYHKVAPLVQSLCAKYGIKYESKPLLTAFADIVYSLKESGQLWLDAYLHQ", "test": "In vitro enzyme assay for desaturase activity (hepatic microsomes), D5D", "format": "biochemical", "method": "(§1) Therefore, we also confirmed that compound-326 has no effect on D9D activity. Inhibitory activity of compound-326 on rat D5D, D6D, and D9D was evaluated using hepatic microsomes prepared from SD rats (CLEA, Japan) as described previously. Assays were performed in a total volume of 30 μL in 96-well plates in a buffer containing 100 mM NaHPO4, 150 mM KCl, 10 mM NaF, 1.5 mM glutathione, 3 mM MgCl2, 1 mM NADH, 3 mM ATP, 0.3 mM CoA-SH, and 0.1% fatty acid free bovine serum albumin (BSA, Sigma, St. Louis, MO); and 0.1 μCi/well of [^14C] DGLA or [^14C] linoleic acids (ARC, St. Louis, MO) were used as substrates for measuring D5D and D6D activities, respectively. After pre-incubation of the test compound with rat liver microsomes (final 1.0 mg/mL) for 5 min, the reaction was started by the addition of NADH, ATP, and the substrates, and the reaction mixture was incubated for another 120 min at room temperature. For D9D assay, [^14C] stearoyl-CoA (PerkinElmer, Waltham, MA) was used in the absence of NADH, ATP, and CoA-SH, and D9D enzyme reaction was performed for 30 min. The reactions were then terminated by the addition of 0.63 N NaOH. […] 2.3 (Fujifilm) and IC50 values were determined using the conversion ratio from the radioactive substrates (20:3n6, 18:2n6 and 18:0) to the products (20:4n6, 18:3n6 and 18:1n9)."}, "human D9D": {"molecular_target": "T2, human D9D (Homo sapiens, UniProt O00767)", "T2 construct": "endogenous in cells; host or cells: HepG2", "T2 sequence (O00767 1-359)": "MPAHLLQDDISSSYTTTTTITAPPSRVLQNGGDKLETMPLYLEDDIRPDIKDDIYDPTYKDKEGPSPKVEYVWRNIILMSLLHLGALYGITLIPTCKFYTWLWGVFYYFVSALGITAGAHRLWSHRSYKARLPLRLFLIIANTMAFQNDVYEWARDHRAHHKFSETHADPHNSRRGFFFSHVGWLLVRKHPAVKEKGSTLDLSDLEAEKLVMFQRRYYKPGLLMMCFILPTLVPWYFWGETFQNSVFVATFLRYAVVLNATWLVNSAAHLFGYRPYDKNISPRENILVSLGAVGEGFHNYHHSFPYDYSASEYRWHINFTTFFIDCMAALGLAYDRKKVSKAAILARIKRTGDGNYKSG", "test": "In vitro cell-based assay for desaturase activity (HepG2), D9D", "method": "(§2) HepG2 cells were seeded in 96-well cell culture plates at 100 000 cells/well and incubated overnight in DMEM supplemented with 10% fetal bovine serum, 100 U/mL penicillin, and 100 μg/mL streptomycin in 5% CO2 at 37°C. The cells were washed twice with 200 μL of PBS and incubated with the test compounds in DMEM with 0.1% fatty acid free BSA for 30 min. Then, 0.1 μCi/well of [^14C]-labeled DGLA, linoleic acid, and stearic acid (ARC, St. Louis, MO) were added for each desaturase assay. After incubation for 3 h at 37°C, the cells were washed 3 times with 200 μL of PBS to remove [^14C]-labeled substrates in the medium and 0.63 N of NaOH was added to saponify fatty acids. Radioactive substrates and products were extracted, separated, and analyzed using the method as described above."}, "rat D6D": {"molecular_target": "T3, rat D6D (Rattus norvegicus, UniProt Q9Z122)", "T3 construct": "using hepatic microsomes prepared from SD rats; from tissue; host or cells: liver microsomes of SD rats (CLEA, Japan)", "T3 sequence (Q9Z122 whole entry)": "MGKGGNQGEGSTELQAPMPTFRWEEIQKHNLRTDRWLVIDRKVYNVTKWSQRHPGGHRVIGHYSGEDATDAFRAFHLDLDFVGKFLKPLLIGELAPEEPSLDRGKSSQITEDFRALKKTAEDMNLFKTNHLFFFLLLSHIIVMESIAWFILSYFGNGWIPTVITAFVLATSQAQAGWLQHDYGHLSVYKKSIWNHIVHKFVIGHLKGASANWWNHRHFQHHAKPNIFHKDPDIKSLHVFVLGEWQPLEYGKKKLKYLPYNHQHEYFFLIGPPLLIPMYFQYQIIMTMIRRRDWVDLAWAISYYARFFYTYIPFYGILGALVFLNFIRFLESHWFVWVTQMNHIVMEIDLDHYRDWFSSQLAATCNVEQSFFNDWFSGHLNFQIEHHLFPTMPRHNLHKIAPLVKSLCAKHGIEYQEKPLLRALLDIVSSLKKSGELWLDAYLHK", "test": "In vitro enzyme assay for desaturase activity (hepatic microsomes), D6D", "format": "biochemical", "method": "as §1"}, "human D6D": {"molecular_target": "T4, human D6D (Homo sapiens, UniProt O95864)", "T4 construct": "endogenous in cells; host or cells: HepG2", "T4 sequence (O95864 1-444)": "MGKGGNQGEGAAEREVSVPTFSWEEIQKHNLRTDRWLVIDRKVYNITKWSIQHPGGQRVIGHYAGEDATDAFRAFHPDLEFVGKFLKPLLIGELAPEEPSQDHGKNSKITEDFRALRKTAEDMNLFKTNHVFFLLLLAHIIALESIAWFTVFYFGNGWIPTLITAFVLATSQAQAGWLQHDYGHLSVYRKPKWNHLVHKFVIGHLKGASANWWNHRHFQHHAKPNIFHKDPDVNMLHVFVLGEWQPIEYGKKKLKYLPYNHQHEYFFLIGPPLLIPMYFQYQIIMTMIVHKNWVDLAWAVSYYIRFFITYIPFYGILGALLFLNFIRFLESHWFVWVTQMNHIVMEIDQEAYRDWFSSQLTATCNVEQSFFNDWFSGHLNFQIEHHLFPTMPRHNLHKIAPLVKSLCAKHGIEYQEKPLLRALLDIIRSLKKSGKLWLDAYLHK", "test": "In vitro cell-based assay for desaturase activity (HepG2), D6D", "method": "as §2"}, "DIO mice": {"tested_on": "DIO mice", "test": "Oral glucose tolerance test and HOMA-IR after 6-week treatment in DIO mice", "format": "in vivo, C57BL/6J mice", "method": "Mice were fed a high-fat diet (HFD) that has 60% kcal from fat and contains 0.09% (w/w) AA (D12492; Research diets, Inc., see S1 Table for fatty acid profile) from 5 weeks of age, and they were divided into 5 groups (7 animals per group) at 11 weeks of age based on BW and daily food intake. In this experiment, 30 mg/kg sibutramine, a […], was used as a positive control for anti-obesity effects. Mice were orally administered compound-326 at doses of 0.1, 1, and 10 mg/kg, sibutramine at a dose of 30 mg/kg, or vehicle for 6 weeks. After 6 weeks, blood concentrations of DGLA and AA under non-fasting condition were evaluated as pharmacodynamics (PD) markers, and oral glucose tolerance test (OGTT) was performed.\nOn the last day of the experiment, mice were given an oral glucose load (2 g/kg) after overnight fasting. Blood samples were collected at specified time points of 0 (pre-glucose/fasting glucose levels), 10, 30, 60, and 120 min post glucose load for the determination of plasma glucose as well as insulin levels. Plasma glucose was enzymatically measured with auto-analyzer 7180 (Hitachi High-Technologies Corporation, Tokyo, Japan). Plasma insulin was measured with mouse insulin ELISA kit (Shibayagi, Gunma, Japan). The total area under the glucose curve was determined from time 0 to 120 min (AUC0–120 min) after glucose administration. Homeostasis model assessment-insulin […] (HOMA-IR) was calculated using the formula: [(fasted PG: mg/dL)×(fasted insulin; μU/mL)[…]/405] [28]."}}, "data": [{"smiles": "O=C1Cc2c(nc(OCC(F)(F)C(F)(F)F)n(-c3ccc(OCC(F)(F)F)cc3)c2=O)N1", "note": "[Compound-326, 2-(2,2,3,3,3-Pentafluoropropoxy)-3-[4-(2,2,2-trifluoroethoxy)phenyl]-5,7-dihydro-3H-pyrrolo[2,3-d]pyrimidine-4,6-dione]", "values": [{"measurement": "IC50", "setting": "rat D5D", "result": 0.072, "unit": "µM"}, {"measurement": "IC50", "setting": "human D9D", "result": "> 10", "unit": "µM"}, {"measurement": "inhibition of D6D activity", "setting": "rat D6D", "result": "almost no inhibition"}, {"measurement": "IC50", "setting": "rat D6D; Enzyme (hepatic microsomes)", "result": "> 10", "unit": "µM"}, {"measurement": "inhibition of D6D activity", "setting": "human D6D", "result": "almost no inhibition"}, {"measurement": "IC50", "setting": "human D6D; Cell-based (HepG2)", "result": "> 10", "unit": "µM"}, {"measurement": "HOMA-IR", "setting": "DIO mice; compound-326 0.1, 1, 10 mg/kg, after 6-week treatment, dose-dependent", "result": "decreased"}, {"measurement": "insulin levels (OGTT)", "setting": "DIO mice; compound-326, after 6-week treatment", "result": "no change"}, {"measurement": "glucose tolerability and insulin sensitivity", "setting": "DIO mice; observed from dose of 1 mg/kg without a significant decrease in BW", "result": "improvement"}]}]}
